In patent US11840686B2, “Modulation of prekallikrein (PKK) expression” (Ionis Pharmaceuticals, Inc., priority 2013, dated 2023):

Experiments:
[1] = Kidney function: plasma BUN and creatinine in cynomolgus monkeys (Example 8); details: 40 mg/kg s.c.
[2] = Tolerability / clinical observation of cynomolgus monkeys (Example 8); format: in vivo, cynomolgus monkey; details: primates, Example 8
Experimental: Cynomolgus monkeys were treated with ISIS antisense oligonucleotides selected from studies described above. Antisense oligonucleotide efficacy and tolerability were evaluated. The human antisense oligonucleotides tested are cross-reactive with the rhesus genomic sequence (GENBANK Accession No. NW_001118167.1 truncated from nucleotides 2358000 to 2391000 and designated herein as SEQ ID NO: 18).
During the study period, the monkeys were observed a minimum of once daily for signs of illness or distress. Any animal experiencing more than momentary or slight pain or distress due to the treatment, injury or illness was promptly reported to the responsible veterinarian and the Study Director. Any animal in poor health or in a possible moribund condition was identified for further monitoring and possible euthanasia. […] The protocols described in the Example were approved by the Institutional Animal Care and Use Committee (IACUC).

[3] = Liver function markers in cynomolgus monkeys (Example 8); details: cynomolgus monkey plasma, 40 mg/kg sc
[4] = system: PKK protein; experiment: PKK protein in cynomolgus monkey plasma by ELISA (Example 8); format: in vivo; details: 40 mg/kg sc
Experimental: Approximately 0.9 mL of blood was collected each time from all available animals at pre-dose, day 17, day 31, day 45, day 59, and day 73, and placed in tubes containing 3.2% sodium citrate. The tubes were centrifuged (3000 rpm for 10 min at room temperature) to obtain plasma. PKK protein levels were measured in the plasma by ELISA. The results are presented in Table 52, expressed as percentage inhibition compared to the PBS control levels.

[5] = system: human PKK mRNA; experiment: Antisense inhibition of human PKK mRNA in HepaRG cells, 1,000 nM, MOE/deoxy/cEt oligonucleotides (Example 3); format: cell-based; details: HepaRG cells, 1,000 nM, electroporation, 24 hours
In short: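 Readout is percent PKK mRNA reduction against untreated controls, by real-time PCR (RTS3454) adjusted for total RNA via RIBOGREEN. Oligonucleotides, phosphorothioate gapmers of 16 nucleosides with cEt, MOE and deoxy sugars, were delivered at 1,000 nM by electroporation to 20,000 HepaRG cells/well for roughly 24 h.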

[6] = Urine protein/creatinine ratio in cynomolgus monkeys (Example 8); details: cynomolgus monkey, 40 mg/kg sc
Experimental: (§1) Prior to the study, the monkeys were kept in quarantine for a 30-day period, during which the animals were observed daily for general health. The monkeys were 2-4 years old and weighed between 2 and 4 kg. Ten groups of four randomly assigned male cynomolgus monkeys each were injected subcutaneously with ISIS oligonucleotide or PBS. PBS solution or ISIS oligonucleotides at a dose of 40 mg/kg were administered initially with a loading regimen consisting of four doses on the first week of the study (days 1, 3, 5, and 7), followed by a maintenance regimen consisting of once weekly administration starting on Day 14 (weeks 2 to 13). Subcutaneous injections were performed in clock-wise rotations at 4 sites on the back; one site per dose. The injection sites were delineated by tattoo, while sedated using ketamine, and were separated by a minimum of 3 cm.
Kidney function was also assessed by urinalysis. Fresh urine from all animals was collected using a clean cage pan on wet ice. Food was removed overnight the day before fresh urine collection was done but water was supplied. The total protein and creatinine levels were measured using a Toshiba 120FR NEO automated chemistry analyzer (Toshiba Co., Japan) and the protein to creatinine ratio was calculated.

[7] = system: human PKK mRNA; experiment: Human PKK mRNA in liver of human KLKB1 transgenic mice (Example 7); format: in vivo; details: transgenic mice
In short: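 Transgenic mice carrying a 37,390 bp human KLKB1 fragment dosed subcutaneously twice weekly for 3 weeks at 2.5, 5.0, 10 or 20 mg/kg/week; PBS controls. Liver harvested 48 h after the last dose. Human PKK mRNA measured by real-time PCR and expressed as % inhibition versus PBS.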

[8] = Hematological parameters in cynomolgus monkeys (Example 8); details: cynomolgus monkey, 40 mg/kg sc, day 87 or day 88
[9] = system: PKK mRNA; experiment: PKK mRNA in cynomolgus monkey liver (Example 8); format: in vivo; details: primates, Example 8
In short: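 Cynomolgus monkeys were dosed with human antisense oligonucleotides cross-reactive with the rhesus sequence. Liver RNA taken on day 87 or 88, 48 h after the last dose, was assayed by real-time PCR (primer probe set RTS3455) and normalized to cyclophilin. Values are percent PKK mRNA inhibition versus PBS control.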

[10] = system: PKK protein; experiment: Plasma PKK protein levels in human KLKB1 transgenic mice (Example 7); format: in vivo; details: transgenic mice
In short: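 Human KLKB1 transgenic mice dosed subcutaneously twice weekly for 3 weeks with antisense oligonucleotides at 2.5, 5.0, 10 or 20 mg/kg/week. Plasma collected 48 hours after the final dose; PKK protein expressed as percent inhibition relative to PBS-treated controls.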

[11] = C-reactive protein and complement C3 levels in cynomolgus monkeys (Example 8); details: cynomolgus monkey plasma, 40 mg/kg sc
Experimental: as §1
To evaluate any inflammatory effect of ISIS oligonucleotides in cynomolgus monkeys, the monkeys were fasted overnight. Approximately, 1.5 mL of blood samples were collected from all the study groups. Blood was collected in tubes without anticoagulant for serum separation. The tubes were kept at room temperature for a minimum of 90 min and then centrifuged at 3,000 rpm for 10 min. C-reactive protein (CRP), which is synthesized in the liver and which serves as a marker of inflammation, was measured using a Toshiba 120FR NEO chemistry analyzer (Toshiba Co., Japan). Complement C3 was also measured similarly, and the data is presented as a percentage of baseline values.

[12] = 2.5 mg/kg/week s.c. twice a week for 3 weeks
[13] = 5.0 mg/kg/week s.c. twice a week for 3 weeks
[14] = 10 mg/kg/week s.c. twice a week for 3 weeks
[15] = 20 mg/kg/week s.c. twice a week for 3 weeks

mCes Ges Aks Tds Ads Tds mCds Ads Tds Gds Ads Tds Tds mCks mCks mCe [ISIS 548048]
Plasma BUN [1]: 21.9 mg/dL
Plasma Creatinine [1]: 0.9 mg/dL
tolerability in primates [2]: tolerable in primates
ALT [3]: 47 IU/L
AST [3]: 44 IU/L
Albumin [3]: 4.2 g/dL
PKK protein level reduction (%) in plasma relative to control levels ([4]; Day 17): 90%
PKK protein level reduction (%) in plasma relative to control levels ([4]; Day 31): 93%
PKK protein level reduction (%) in plasma relative to control levels ([4]; Day 45): 95%
PKK protein level reduction (%) in plasma relative to control levels ([4]; Day 59): 95%
PKK protein level reduction (%) in plasma relative to control levels ([4]; Day 73): 95%
mRNA inhibition [5]: 84%
Urine protein/creatinine ratio [6]: 0.03
human PKK mRNA inhibition [7, 12]: 7%
human PKK mRNA inhibition [7, 13]: 77%
human PKK mRNA inhibition [7, 14]: 72%
human PKK mRNA inhibition [7, 15]: 80%
HCT [8]: 44%
Hemoglobin [8]: 13.4 g/dL
Platelets [8]: 393000 µL⁻¹
RBC [8]: 5.9e+06 µL⁻¹
WBC [8]: 11000 µL⁻¹
inhibiting PKK mRNA and protein expression in primates [9]: effective for inhibiting PKK mRNA and protein expression
human PKK protein inhibition [10, 12]: 23%
human PKK protein inhibition [10, 13]: 70%
human PKK protein inhibition [10, 14]: 89%
human PKK protein inhibition [10, 15]: 98%
C3 (% of baseline) [11]: 69 % of baseline
CRP [11]: 0.2 mg/dL
